Laboratory results as given in US20240246941A1, “SUBSTITUTED 4-(3-AMINOPROP-1-YL)AMINOQUINOLINE ANALOGS AS MODULATORS OF MELANOMA-ASSOCIATED ANTIGEN 11 UBIQUITIN LIGASE” (ST. JUDE CHILDREN'S RESEARCH HOSPITAL, INC., priority 2020, published 2024).

These molecules were tested against MAGE-A11:PCF11 (Homo sapiens (Human), UniProt P43364) (assay: TR-FRET single point screening at 15 μM). Settings: single point TR-FRET screening at 15 μM against MAGE-A11:PCF11.
Type: binding
Parameters: unit not given here
In short: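 Competition TR-FRET: compounds at final 15 μM mixed with 200 nM FAM-PCF11_4, 5 nM GST-MAGEA11 and 5 nM Tb-anti-GST in Tris pH 7.5/MgCl2/BSA/DTT buffer, room temperature, 90 min. Emission ratio 520/490 nm (340 nm excitation) expressed as % inhibition relative to positive and negative controls.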

Sequence of MAGE-A11:PCF11 (P43364 218-429): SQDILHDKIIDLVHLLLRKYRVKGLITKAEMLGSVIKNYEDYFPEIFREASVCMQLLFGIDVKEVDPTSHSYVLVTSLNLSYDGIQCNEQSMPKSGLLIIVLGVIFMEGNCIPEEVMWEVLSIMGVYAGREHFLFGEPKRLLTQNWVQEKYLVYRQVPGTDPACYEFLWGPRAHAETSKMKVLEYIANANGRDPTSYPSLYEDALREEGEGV

Question: How did the TR-FRET signal turn out when `COc1ccc2nc3cc(Cl)ccc3c(NCCCNCc3ccc4ccccc4c3)c2c1` [SJ000523038] was run?
Answer: −109.5

Question: Which TR-FRET signal does the source give for `CCOc1ccc2ncc(C(=O)c3ccc(OC)cc3)c(N3CCN(C)CC3)c2c1` [SJ000247277] here?
Answer: −18.95

Question: With `COc1ccc2nc3cc(Cl)ccc3c(NCCCNCc3cc4ccccc4o3)c2c1` [SJ000520997] as the molecule, how does the TR-FRET signal read?
Answer: −146.7

Question: Which TR-FRET signal does the source give for `COc1ccc(-c2csc(N3CCN(c4cc(C)nc5ccccc45)CC3)n2)cc1OC` [SJ000114009] here?
Answer: −53.43

Question: Which TR-FRET signal does the source give for `O=S(=O)(c1ccccc1)c1cnc2ccc(F)cc2c1N1CCN(c2ccccc2F)CC1` [SJ000315166] here?
Answer: −99.06

Question: Which TR-FRET signal does the source give for `CCN1CCN(c2c(S(=O)(=O)c3ccc(C)cc3)cnc3ccc(Cl)cc23)CC1` [SJ000083966] here?
Answer: −4.358

Question: With `Cc1cc(C)c(CN2CCC(Nc3ccnc4cc(Cl)ccc34)CC2)c(C)c1` [SJ000523084] as the molecule, how does the TR-FRET signal read?
Answer: 11.75

Question: How did the TR-FRET signal turn out when `Clc1ccc2c(NCCCCN(Cc3ccccc3)Cc3ccccc3)ccnc2c1` [SJ000522718] was run?
Answer: 17.35

Question: For `CCCN(CCCNc1c2ccc(Cl)cc2nc2ccc(OC)cc12)Cc1ccc([N+](=O)[O-])o1` [SJ000523022], which TR-FRET signal is on record?
Answer: −329.7

Question: With `CCc1ccc(CNCCCNc2c3ccc(Cl)cc3nc3ccc(OC)cc23)cc1` [SJ000521005] as the molecule, how does the TR-FRET signal read?
Answer: −390.4

Question: For `CCCN(CCCNc1c2ccc(Cl)cc2nc2ccc(OC)cc12)Cc1ccc2ccccc2c1` [SJ000520953], which TR-FRET signal is on record?
Answer: −129.1

Question: `CCOC(=O)c1cnc2c(C)cc(C)cc2c1NCCN1CCOCC1` [SJ000172983] was tested. Which TR-FRET signal did it give?
Answer: 8.869

Question: Which TR-FRET signal does the source give for `CCN1CCN(c2c(S(=O)(=O)c3ccccc3)cnc3ccc(Cl)cc23)CC1` [SJ000083960] here?
Answer: 4.43

Question: How did the TR-FRET signal turn out when `CCCN(CCCNc1c2ccc(Cl)cc2nc2ccc(OC)cc12)Cc1ccc(-c2ccccc2[N+](=O)[O-])o1` [SJ000523019] was run?
Answer: −102.8

Question: Which TR-FRET signal does the source give for `COc1ccc2nc3cc(Cl)ccc3c(NCCCNCc3cccc(C#N)c3)c2c1` [SJ000523037] here?
Answer: −333.2

Question: How did the TR-FRET signal turn out when `COc1ccc(F)cc1CN(CCCCNc1ccnc2cc(Cl)ccc12)Cc1ccccc1` [SJ000357496] was run?
Answer: 20.78

Question: For `COc1cccc(CN(CCCCNc2ccnc3cc(Cl)ccc23)Cc2ccccc2)c1O` [SJ000312694], which TR-FRET signal is on record?
Answer: 7.676

Question: How did the TR-FRET signal turn out when `Oc1ccccc1CN(CCCCNc1ccnc2cc(Cl)ccc12)Cc1ccccc1` [SJ000312697] was run?
Answer: 24.83

Question: For `O=C(O)CCCNC(=O)CNc1c2ccccc2nc2ccccc12` [SJ000016432], which TR-FRET signal is on record?
Answer: 9.598

Question: `CCOC(=O)c1cnc2ccc(Br)cc2c1NCCN1CCOCC1` [SJ000031339] was tested. Which TR-FRET signal did it give?
Answer: −47.24

Question: With `Clc1ccc2c(NCCCCN(Cc3ccccc3)Cc3ccsc3)ccnc2c1` [SJ000312689] as the molecule, how does the TR-FRET signal read?
Answer: 16.3

Question: For `Cn1cc(CN(CCCCNc2ccnc3cc(Cl)ccc23)Cc2ccccc2)c2ccccc21` [SJ000520440], which TR-FRET signal is on record?
Answer: −14.35

Question: `O=S(=O)(c1ccc(F)cc1)N1CCN(c2ccnc3cc(Cl)ccc23)CC1` [SJ000203833] was tested. Which TR-FRET signal did it give?
Answer: −50.64

Question: With `CC(C)CN(CCCCNc1ccnc2cc(Cl)ccc12)Cc1ccccc1` [SJ000357470] as the molecule, how does the TR-FRET signal read?
Answer: 25.47

Question: `CCCCCN(CCC)CCCNc1c2ccc(Cl)cc2nc2ccc(OC)cc12` [SJ000520941] was tested. Which TR-FRET signal did it give?
Answer: −210.3

Question: With `COc1ccc2nc3cc(Cl)ccc3c(NCCCNCC3CCOC3)c2c1` (centres unmarked) [SJ000521003] as the molecule, how does the TR-FRET signal read?
Answer: −442.3

Question: With `Clc1ccc2c(NCCCCN(Cc3ccccc3)Cc3ccc4c(c3)OCO4)ccnc2c1` [SJ000522723] as the molecule, how does the TR-FRET signal read?
Answer: 16.51

Question: `Cc1ccc(S(=O)(=O)c2cnc3ccccc3c2N2CCN(c3cc(C)ccc3C)CC2)cc1` [SJ000117084] was tested. Which TR-FRET signal did it give?
Answer: 2.443

Question: Which TR-FRET signal does the source give for `COc1ccc2nc3cc(Cl)ccc3c(NCCCNCc3ccc(OC(F)(F)F)cc3)c2c1` [SJ000520992] here?
Answer: −201

Question: `CCCN(CCCNc1c2ccc(Cl)cc2nc2ccc(OC)cc12)CCC(C)(C)C` [SJ000522983] was tested. Which TR-FRET signal did it give?
Answer: −233.7

Question: With `CCCN(CCCNc1c2ccc(Cl)cc2nc2ccc(OC)cc12)Cc1ccc(-c2cccc(Cl)c2)o1` [SJ000523020] as the molecule, how does the TR-FRET signal read?
Answer: −169.7

Question: `Clc1ccc2c(NCCCCN(Cc3ccccc3)Cc3ccc(Br)o3)ccnc2c1` [SJ000312684] was tested. Which TR-FRET signal did it give?
Answer: 14.96

Same assay, conditions: single point TR-FRET screening of quinoline compounds against MAGE-A11:PCF11; 15 μM

Question: `Clc1ccc(CN(CCCNc2ccnc3cc(Cl)ccc23)Cc2ccccc2)c(Cl)c1` [SJ000361184] was tested. Which TR-FRET signal did it give?
Answer: 25.5

Question: With `CCCN(CCCNc1ccnc2cc(Cl)ccc12)Cc1nc(C)cs1` [SJ000522997] as the molecule, how does the TR-FRET signal read?
Answer: 3.413

Question: `CCCN(CCCNc1c2ccc(Cl)cc2nc2ccc(OC)cc12)Cc1csc2ccccc12` [SJ000522970] was tested. Which TR-FRET signal did it give?
Answer: −51.69

Question: For `Cc1ccc(CNCCCNc2ccnc3cc(C(F)(F)F)ccc23)o1` [SJ000361109], which TR-FRET signal is on record?
Answer: 14.45

Question: `CN(C)CCCNc1c2ccccc2nc2ccccc12` [SJ000044378] was tested. Which TR-FRET signal did it give?
Answer: 16.77

Question: For `CCCN(CCCNc1ccnc2cc(C(F)(F)F)ccc12)Cc1ccc(C)o1` [SJ000361261], which TR-FRET signal is on record?
Answer: 23.91

Question: With `FC(F)(F)c1ccc2c(NCCCNCc3ccco3)ccnc2c1` [SJ000361113] as the molecule, how does the TR-FRET signal read?
Answer: 18.05

Question: How did the TR-FRET signal turn out when `COc1ccc2nc3cc(Cl)ccc3c(NCCCNCc3ccc(N(C)C)c4ccccc34)c2c1` [SJ000523028] was run?
Answer: −1.532

Question: With `CCCN(CCCNc1c2ccc(Cl)cc2nc2ccc(OC)cc12)Cc1ccc(C)o1` [SJ000520932] as the molecule, how does the TR-FRET signal read?
Answer: 0.9854

Question: Which TR-FRET signal does the source give for `Cc1cc(C)cc(Cc2ccc3c(NCCCNCc4ccco4)ccnc3c2)c1` [SJ000311318] here?
Answer: 39.31

Question: With `CCCN(CCCCCC(=O)OC)CCCNc1ccnc2cc(C(F)(F)F)ccc12` [SJ000575191] as the molecule, how does the TR-FRET signal read?
Answer: 5.6

Question: `Clc1ccc2c(NCCCNCc3nc4ccccc4s3)ccnc2c1` [SJ000521034] was tested. Which TR-FRET signal did it give?
Answer: 4.695

Question: How did the TR-FRET signal turn out when `CCCCNCCCNc1ccnc2cc(C(F)(F)F)ccc12` [SJ000521055] was run?
Answer: 18.54

Question: Which TR-FRET signal does the source give for `CCCN(CCCNc1ccnc2cc(C(F)(F)F)ccc12)Cc1cccc(C(F)(F)F)c1` [SJ000520471] here?
Answer: 13.02

Question: How did the TR-FRET signal turn out when `CCCN(CCCNc1c2ccc(Cl)cc2nc2ccc(OC)cc12)Cc1ccc(N(C)C)cc1` [SJ000520955] was run?
Answer: −10.06

Question: With `Cn1cccc1CNCCCNc1ccnc2cc(Cl)ccc12` [SJ000521019] as the molecule, how does the TR-FRET signal read?
Answer: 18.96

Question: `CCCN(CCCNc1ccnc2cc(C(F)(F)F)ccc12)Cc1cccc2c1OCO2` [SJ000520472] was tested. Which TR-FRET signal did it give?
Answer: 14.62

Question: With `Clc1ccc2c(NCCCN(Cc3ccccc3)CC3CC3)ccnc2c1` [SJ000357483] as the molecule, how does the TR-FRET signal read?
Answer: 21.06

Question: `Cc1csc(CN(CCCNc2ccnc3cc(Cl)ccc23)Cc2ccccc2)n1` [SJ000520463] was tested. Which TR-FRET signal did it give?
Answer: −10.47

Question: With `CCCN(CCCNc1ccnc2cc(Cl)ccc12)Cc1ccccc1N` [SJ000522747] as the molecule, how does the TR-FRET signal read?
Answer: 15.43

Question: `CCCN(CCCNc1ccnc2cc(Cl)ccc12)Cc1ccc(-c2ccccc2[N+](=O)[O-])o1` [SJ000523044] was tested. Which TR-FRET signal did it give?
Answer: 9.266

Question: For `CSC(C)CCNCCCNc1ccnc2cc(C(F)(F)F)ccc12` (centres unmarked) [SJ000361125], which TR-FRET signal is on record?
Answer: 24.46

Question: `COc1ccc2nc3cc(Cl)ccc3c(NCCCNCc3ccc[nH]3)c2c1` [SJ000361084] was tested. Which TR-FRET signal did it give?
Answer: 0.9854

Question: With `CC(CCN(CCCNc1ccnc2cc(Cl)ccc12)Cc1ccccc1)c1ccccc1` (centres unmarked) [SJ000311184] as the molecule, how does the TR-FRET signal read?
Answer: 17.35

Question: For `CCCN(CCCNc1c2ccc(Cl)cc2nc2ccc(OC)cc12)Cc1ccccc1O` [SJ000520926], which TR-FRET signal is on record?
Answer: −91.84

Question: `CCCN(CCCNc1ccnc2cc(Cl)ccc12)Cc1ccc(Br)o1` [SJ000311195] was tested. Which TR-FRET signal did it give?
Answer: 14.48

Question: For `CCCN(CCCNc1ccnc2cc(C(F)(F)F)ccc12)Cc1ccccn1` [SJ000361252], which TR-FRET signal is on record?
Answer: 15.16
